{
  "source": "patent US12485291B2",
  "about": "“Method for treatment of cholangiocarcinoma with cold atmospheric plasma and folfirinox” (Jerome Canady Research Institute for Advanced Biological …, priority 2019, dated 2025)",
  "origin": "cited, not measured here",
  "test_system": "metastatic pancreatic cancer",
  "settings": "patients with metastatic pancreatic cancer",
  "data": [
    {"smiles": "Nc1ccn([C@@H]2O[C@H](CO)[C@@H](O)C2(F)F)c(=O)n1", "note": "[gemcitabine]", "values": [
      {"measurement": "overall survival", "result": 6.8, "unit": "months"}
    ]}
  ]
}
